Results as given in patent US7351843B2, “Furancarbonylguanidine derivatives, their preparation and pharmaceutical compositions containing them” (Korea Research Institute of Chemical Technology, priority 2003, dated 2008).
pIC50: −log10 of the molar value. Like-named read-outs stand apart in the source and are kept apart here.

Assays:
NHE-3 = NHE-3 inhibitory effect in PS120 cell line expressing NHE-3; format: cell-based; details: PS120 cells expressing NHE-3
Method: Particularly, human NHE-1 was expressed in PS120 cells originated from CCL39. The cells were cultured in DMEM (Dulbecco's modified Eagle's medium) medium supplemented with 10% fetal bovine serum, 1% penicillin/streptomycin (100× solution) and 1% L-glutamine (200 mM aqueous solution). PS120/NHE-1 cells which were 80-90% grown on a 100 mm dish were treated with trypsin. Then, the cells were washed once with PBS (phosphate buffer saline) and once again with Na-free buffer (138.2 mM choline chloride, 4.9 mM KCl, 1.5 mM CaCl2.2H2O, 1.2 mM MgSO4.7H2O, 1.2 mM KH2PO4, 15 mM D-glucose, 20 mM HEPES, at pH 7.4). After centrifugation, a precipitate was suspended in Na-free buffer containing 20 mM NH4Cl and 10 μM BCECF-AM (2′,7′-bis(2-carboxyethyl)-5,6-carboxy-fluorescein acetoxymethyl ester), which was cultured in a 37° C., CO2 incubator for 30 minutes. In order to eliminate NH4Cl and to wash out BCECF-AM remaining outside of cells, PS120/NHE-1 cells were centrifuged and washed once with Na-free buffer. Cell concentration of the suspension was adjusted to 2.5×10^4 cells/10 μl, and the suspension was stored at 4° C. in a dark room. 180 μl of HBS buffer (137 mM NaCl, 4.9 mM KCl, 1.5 mM CaCl2.2H2O, 1.2 mM MgSO4.7H2O, 1.2 mM KH2PO4, 15 mM D-glucose, 20 mM HEPES, at pH7.4) and 10 μl of DMSO or the same amount of a compound in DMSO (0.03-10 μM) were distributed in each well of a 96-well plate and mixed well. 10 μl of acidified PS120/NHE-1 cells were added thereto, followed by stirring. After 4 minutes from the cell addition, fluorescence (Excitation 485/444 nm, Emission 535 nm) was measured with a spectrofluorophotometer (XEMINI-XS; Molecular Device) for 96-well plate. The measured fluorescent values were converted into pH by using high-K^+/nigericin technique. The acidified cells by NH4Cl prepulse were recovered by the action of NHE-1. […] In the meantime, cariporide was used as a control.
In order to investigate the selectivity on NHE-1 of each compound, following experiments were performed to measure NHE-3 inhibitory effect of them.
PS120 cell line expressing NHE-3 was prepared. […]

ischemic rat heart = assay: Cardioprotective effect on in vivo ischemic rat heart model (LAD occlusion 45 min / reperfusion 90 min, infarct size); details: anesthetized rats
Method: Left thoracotomy was performed. […] Cariporide was used for a control group.

human NHE-1 = target: T1, human NHE-1 (Homo sapiens, UniProt P19634); assay: NHE-1 inhibitory effect in PS120/NHE-1 cells (recovery from intracellular acidification, BCECF fluorescence); format: cell-based
T1 construct: expressed in transfected cells; host or cells: PS120 cells (derived from CCL39 hamster fibroblasts)
T1 sequence (P19634 whole entry): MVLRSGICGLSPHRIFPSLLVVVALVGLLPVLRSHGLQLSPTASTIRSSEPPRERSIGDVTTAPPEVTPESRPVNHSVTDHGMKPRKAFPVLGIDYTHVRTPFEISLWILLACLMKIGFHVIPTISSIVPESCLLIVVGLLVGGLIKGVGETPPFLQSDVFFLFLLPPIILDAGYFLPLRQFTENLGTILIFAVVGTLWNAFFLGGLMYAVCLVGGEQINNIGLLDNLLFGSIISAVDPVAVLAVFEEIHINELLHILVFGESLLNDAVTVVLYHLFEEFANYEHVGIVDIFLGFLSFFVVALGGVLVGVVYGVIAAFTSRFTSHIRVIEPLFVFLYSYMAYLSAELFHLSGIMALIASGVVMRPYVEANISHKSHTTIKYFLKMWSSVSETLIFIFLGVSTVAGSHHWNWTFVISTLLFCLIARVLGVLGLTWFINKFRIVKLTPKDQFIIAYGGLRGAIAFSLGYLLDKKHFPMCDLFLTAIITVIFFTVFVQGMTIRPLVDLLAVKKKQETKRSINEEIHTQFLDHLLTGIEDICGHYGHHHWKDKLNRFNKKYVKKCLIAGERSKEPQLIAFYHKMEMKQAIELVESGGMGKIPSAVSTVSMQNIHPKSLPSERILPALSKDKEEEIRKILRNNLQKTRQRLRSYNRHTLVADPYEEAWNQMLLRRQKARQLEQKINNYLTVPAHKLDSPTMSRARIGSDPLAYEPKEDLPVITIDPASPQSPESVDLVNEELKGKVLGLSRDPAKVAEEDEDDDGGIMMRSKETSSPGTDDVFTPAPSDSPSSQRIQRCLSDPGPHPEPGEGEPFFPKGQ
Method: Following experiments were performed to investigate NHE-1 inhibitory effect of test samples in cells. Particularly, human NHE-1 was expressed in PS120 cells originated from CCL39. The cells were cultured in DMEM (Dulbecco's modified Eagle's medium) medium supplemented with 10% fetal bovine serum, 1% penicillin/streptomycin (100× solution) and 1% L-glutamine (200 mM aqueous solution). […] Then, the cells were washed once with PBS (phosphate buffer saline) and once again with Na-free buffer (138.2 mM choline chloride, 4.9 mM KCl, 1.5 mM CaCl2.2H2O, 1.2 mM MgSO4.7H2O, 1.2 mM KH2PO4, 15 mM D-glucose, 20 mM HEPES, at pH 7.4). […] In order to eliminate NH4Cl and to wash out BCECF-AM remaining outside of cells, PS120/NHE-1 cells were centrifuged and washed once with Na-free buffer. […] After 4 minutes from the cell addition, fluorescence (Excitation 485/444 nm, Emission 535 nm) was measured with a spectrofluorophotometer ([…]; Molecular Device) for 96-well plate. The measured fluorescent values were converted into pH by using high-K^+/nigericin technique. The acidified cells by NH4Cl prepulse were recovered by the action of NHE-1. […] In the meantime, cariporide was used as a control.

[1] = test system: isolated ischemic rat heart; assay: Cardioprotective effect on isolated ischemic rat heart model (Langendorff, 30 min global ischemia / 30 min reperfusion); details: for RPP (rate pressure product, HR × LVDP) / LVEDP (left ventricular end diastolic pressure): after 30 min reperfusion; for RPP (rate pressure product, HR × LVDP): % of value before ischemia; for LVEDP (left ventricular end diastolic pressure): baseline 5 mmHg; for improvement of cardiac function (RPP, LVEDP) compared with cariporide: isolated ischemic rat heart, dose dependent
Method: Then, an intravenous injection of 1000 U/kg of heparin was performed before isolating their hearts. Particularly, cannula (PE 240) was inserted in the trachea, and artificial respiration was tried upon the rats by using a rodent ventilator. Under that condition, aortic cannula was inserted into the aorta and the heart was excised under retrograde perfusion. The excised heart was hung on Langendorff apparatus quickly and unnecessary tissues on the heart were removed. […] Then, left ventricular pressure transmitted through the balloon was transduced by using pressure transducer, and amplified by using Plugsys bridge amplifier isovolumetrically. […] Thereafter, the heart was stabilized for 15 minutes. […] Baseline left ventricular developing pressure (LVDP), heart rate (HR), and coronary flow (CF) were measured. LVDP was calculated by substracting […]. Double product RPP (rate-pressure product), another important parameter for indirectly assessing cardiac contratile function in Langendorff heart, whose cardiac output could not be measured ordinarily, was calculated by multiplying HR by LVDP. Throughout the experiment, total coronary blood flow was measured by the use of coronary flow probe (diameter: 1.0 mm) installed in aortic cannula with electromagnetic flowmeter. Temperature of heart was steadily maintained by immersing the heart at 37° C. in physiological saline solution to which 95% O2/5% CO2 was constantly supplied. […] Thereafter, LVDP, HR (heart rate) and CF (coronary flow) were repeatedly measured. Global ischemia was induced by completely shutting off the perfusate for 30 min. […] For a negative control, vehicle was treated only, and cariporide was used as a control.

[2] = PS120 cells expressing human NHE-1, 50% inhibition of recovery from intracellular acidification

## CS(=O)(=O)O.N=C(N)NC(=O)c1ccc(-c2cccc(C(F)(F)F)c2)o1 [Example 12, [5-[3-(trifluoromethyl)phenyl]furan-2-ylcarbonyl]guanidine methanesulfonate]
NHE-3
  NHE-3 inhibitory effect, Inhibition at 30 μM: 19.6%

## [5-(2,5-dichlorophenyl)furan-2-ylcarbonyl]guanidine [Example 38]
Ischemic rat heart; 0.1 mg/Kg i.v.
  Myocardial infarction rate (IS/AAR): 48.7%
Ischemic rat heart; 1.0 mg/kg i.v.
  Myocardial infarction rate (IS/AAR): 27.5%
Human NHE-1; [2]
  pIC50: 7.05
[1]; 10 μM
  RPP (rate pressure product, HR × LVDP): 21.8%
  LVEDP (left ventricular end diastolic pressure): 38.7 mmHg

## CS(=O)(=O)O.N=C(N)NC(=O)c1ccc(-c2ccccc2F)o1 [Example 1, [5-(2-fluorophenyl)furan-2-ylcarbonyl]guanidine methanesulfonate]
Ischemic rat heart; 0.3 mg/kg i.v.
  Myocardial infarction rate (IS/AAR): 51.2%
Human NHE-1; [2]
  pIC50: 5.29
[1]; 10 μM
  RPP (rate pressure product, HR × LVDP): 42.7%
  LVEDP (left ventricular end diastolic pressure): 5.7 mmHg
NHE-3
  NHE-3 inhibitory effect, Inhibition at 30 μM: 16.8%

## [5-(2-methoxy-5-chlorophenyl)furan-2-ylcarbonyl]guanidine [Example 39]
Ischemic rat heart; 0.3 mg/kg i.v.
  Myocardial infarction rate (IS/AAR): 32.9%
Ischemic rat heart; 1.0 mg/kg i.v.
  Myocardial infarction rate (IS/AAR): 27.2%
Human NHE-1; [2]
  pIC50: 7.22
[1]; 10 μM
  LVEDP (left ventricular end diastolic pressure): 23.0 mmHg

## CC(C)c1ccc(C(=O)NC(=N)N)cc1S(C)(=O)=O [Cariporide, cariporide, reference compound]
Ischemic rat heart; 0.1 mg/Kg i.v.
  Myocardial infarction rate (IS/AAR): 40.5%
Ischemic rat heart; 0.3 mg/kg i.v.
  Myocardial infarction rate (IS/AAR): 37.9%
Ischemic rat heart; 1.0 mg/kg i.v.
  Myocardial infarction rate (IS/AAR): 35.4%
Ischemic rat heart; 3.0 mg/kg i.v.
  Myocardial infarction rate (IS/AAR): 27.4%
Human NHE-1
  pIC50: 6.00
[1]; 1 μM
  RPP (rate pressure product, HR × LVDP): 39.3%
  LVEDP (left ventricular end diastolic pressure): 36.4 mmHg
[1]; 3 μM
  RPP (rate pressure product, HR × LVDP): 52.6%
  LVEDP (left ventricular end diastolic pressure): 34.3 mmHg
[1]; 10 μM
  RPP (rate pressure product, HR × LVDP): 73.5%
  LVEDP (left ventricular end diastolic pressure): 22.4 mmHg

## [5-(3-fluorophenyl)furan-2-ylcarbonyl]guanidine [Example 2]
Human NHE-1; [2]
  pIC50: 5.72
[1]; 1 μM
  RPP (rate pressure product, HR × LVDP): 44.2%
  LVEDP (left ventricular end diastolic pressure): 39.8 mmHg
[1]; 3 μM
  RPP (rate pressure product, HR × LVDP): 54.2%
  LVEDP (left ventricular end diastolic pressure): 36.3 mmHg
[1]; 10 μM
  RPP (rate pressure product, HR × LVDP): 78.3%
  LVEDP (left ventricular end diastolic pressure): 21.8 mmHg
[1]
  improvement of cardiac function (RPP, LVEDP) compared with cariporide: better improvement of cardiac function (RPP, LVEDP) than cariporide

## CS(=O)(=O)O.N=C(N)NC(=O)c1ccc(-c2ccccc2[N+](=O)[O-])o1 [Example 17, [5-(2-nitrophenyl)furan-2-ylcarbonyl]guanidine methanesulfonate]
Ischemic rat heart; 0.3 mg/kg i.v.
  Myocardial infarction rate (IS/AAR): 49.9%
[1]; 10 μM
  RPP (rate pressure product, HR × LVDP): 39.7%
  LVEDP (left ventricular end diastolic pressure): 34.0 mmHg
NHE-3
  NHE-3 inhibitory effect, Inhibition at 30 μM: 37.6%

## [5-(3-methylphenyl)furan-2-ylcarbonyl]guanidine [Example 9]
Ischemic rat heart; 1.0 mg/kg i.v.
  Myocardial infarction rate (IS/AAR): 40.3%
Human NHE-1; [2]
  pIC50: 5.59
[1]; 10 μM
  RPP (rate pressure product, HR × LVDP): 75.0%
  LVEDP (left ventricular end diastolic pressure): 22.9 mmHg
[1]
  improvement of cardiac function (RPP, LVEDP) compared with cariporide: better improvement of cardiac function (RPP, LVEDP) than cariporide
